Test results: patent US20230167088A1, “1-PYRAZINYLPYRAZOLYL-3-OXYALKYL ACIDS AND THEIR DERIVATIVES, AND THEIR USE FOR CONTROL OF UNDESIRED PLANT GROWTH” (BAYER AKTIENGESELLSCHAFT, priority 2020, published 2023)

Key:
ALOMY [1] = assay: Herbicidal post-emergence action 1a (greenhouse pots, visual rating); format: in vivo, Alopecurus myosuroides; settings: rated visually about 3 weeks after treatment, 100% = plants have died, 0% = like control plants
Procedure, shortened: (§1)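 Weeds and crops sown in sandy loam in greenhouse pots were sprayed post-emergence at the one-leaf stage (2–3 weeks after sowing) with WP or EC formulations plus 0.5% additive at 600 l/ha water, 320 and/or 80 g/ha. About 3 weeks later damage was rated visually against untreated controls (0% = no effect, 100% = dead).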

AVEFA [2] = assay: as above; format: in vivo, Avena fatua; settings: rated visually about 3 weeks after treatment, 100% = plants have died, 0% = like control plants
Procedure, shortened: as §1

DIGSA = assay: as above; format: in vivo, Digitaria sanguinalis; settings: rated visually about 3 weeks after treatment, 100% = plants have died, 0% = like control plants
Procedure, shortened: as §1

LOLRI = assay: as above; format: in vivo, Lolium rigidum; settings: rated visually about 3 weeks after treatment, 100% = plants have died, 0% = like control plants
Procedure, shortened: as §1

VIOTR = assay: as above; format: in vivo, Viola tricolor; settings: visual rating about 3 weeks after treatment
Procedure, shortened: as §1

ALOMY [3] = assay: Herbicidal pre-emergence action 2a (greenhouse pots, visual scoring); format: in vivo, Alopecurus myosuroides; settings: dosage 320 g/ha, visual scoring after about 3 weeks
Procedure, shortened: (§2)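 Weed and crop seeds placed in pots and covered with soil; aqueous suspension or emulsion of WP/EC formulation applied to the soil surface before emergence (600 l/ha, 0.5% additive, 320 and/or 80 g/ha). Pots kept in the greenhouse about 3 weeks; visual percentage scoring.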

AVEFA [4] = assay: as above; format: in vivo, Avena fatua; settings: dosage 320 g/ha, visual scoring after about 3 weeks
Procedure, shortened: as §2

AMARE = assay: as above; format: in vivo, Amaranthus retroflexus; settings: dosage 320 g/ha, visual scoring after about 3 weeks vs untreated controls
Procedure, shortened: as §2

ECHCG = assay: Herbicidal pre-emergence action 2b (doubly sown, 1280 g/ha); format: in vivo, Echinochloa crus-galli; settings: doubly sown pots, dosage 1280 g/ha, visual scoring after about 3 weeks
Procedure, shortened: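 Pots of sandy loam doubly sown with one monocot and one dicot weed species, covered, then soil surface sprayed pre-emergence with WP or EC formulations plus 0.5% additive at 600 l/ha water. Greenhouse-grown about 3 weeks; activity scored visually as % versus untreated controls (100% = dead).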

harmful plants = assay: Herbicidal post-emergence action 1a, summary across species; format: in vivo; settings: Tables A1 to A15 (320 g/ha and/or 80 g/ha)
Procedure: a) Seeds of monocotyledonous and dicotyledonous weeds and crop plants are placed in sandy loam in plastic or organic plant pots, covered with soil and cultivated in a greenhouse under controlled growth conditions. 2 to 3 weeks after sowing, the test plants are treated at the one-leaf stage. The compounds of the invention, formulated in the form of wettable powders (WP) or as emulsion concentrates (EC), are then sprayed onto the green parts of the plants as aqueous suspension or emulsion with addition of 0.5% additive at a water application rate of 600 1/ha (converted). After the test plants have been kept in the greenhouse under optimum growth conditions for about 3 weeks, the activity of the preparations is rated visually in comparison to untreated controls. For example, 100% activity=the plants have died, 0% activity=like control plants.
Tables A1 to A15 below show the effects of selected compounds of the general formula (I) according to Tables 1 and 2 on various harmful plants and an application rate corresponding to 320 g/ha and/or 80 g/ha, which were obtained by the experimental procedure mentioned above.
For example, compound nos. I-05, I-07, I-08, I-10, I-12, I-16, I-17, I-22, I-36, I-37, I-39 and I-40 in the post-emergence method have very good action (80% to 100% herbicidal activity) against harmful plants such as Alopecurus myosuroides, Amaranthus retroflexus, Avena fatua, Lolium rigidum, Polygonum convolvulus, Setaria viridis, Veronica persica and Viola tricolor at an application rate of 0.32 kg of active substance per hectare.

COC(=O)C(C)Oc1nn(-c2cnccn2)c(-c2ccc(F)nc2)c1Br (racemic) [Example I-12]
100%: Post-emergence action against AVEFA in % (AVEFA [2]; Dosage 80 g/ha) | Post-emergence action against AVEFA in % (AVEFA [2]; Dosage 320 g/ha) | Post-emergence action against VIOTR in % (VIOTR; dosage 320 g/ha) | Pre-emergence action against ALOMY in % (ALOMY [3]) | Pre-emergence action against AMARE in % (AMARE) | Pre-emergence action at 1280 g/ha against ECHCG in % (ECHCG)
90%: Post-emergence action against ALOMY in % (ALOMY [1]; Dosage 80 g/ha) | Post-emergence action against ALOMY in % (ALOMY [1]; Dosage 320 g/ha) | Post-emergence action against LOLRI in % (LOLRI; Dosage 320 g/ha) | Post-emergence action against VIOTR in % (VIOTR; dosage 80 g/ha) | Pre-emergence action against AVEFA in % (AVEFA [4])
good herbicidal efficacy: herbicidal efficacy against harmful plants in the case of post-emergence treatment (in words) (harmful plants)
80%: Post-emergence action against DIGSA in % (DIGSA; Dosage 320 g/ha)

COC(=O)C(C)Oc1nn(-c2cnccn2)c(-c2ccc(F)c(F)c2)c1C#N (racemic) [Example I-22]
100%: Post-emergence action against ALOMY in % (ALOMY [1]; Dosage 320 g/ha) | Post-emergence action against AVEFA in % (AVEFA [2]; Dosage 80 g/ha) | Post-emergence action against AVEFA in % (AVEFA [2]; Dosage 320 g/ha) | Post-emergence action against LOLRI in % (LOLRI; Dosage 320 g/ha) | Pre-emergence action against ALOMY in % (ALOMY [3]) | Pre-emergence action at 1280 g/ha against ECHCG in % (ECHCG)
90%: Post-emergence action against ALOMY in % (ALOMY [1]; Dosage 80 g/ha) | Post-emergence action against VIOTR in % (VIOTR; dosage 320 g/ha) | Pre-emergence action against AVEFA in % (AVEFA [4]) | Pre-emergence action against AMARE in % (AMARE)
good herbicidal efficacy: herbicidal efficacy against harmful plants in the case of post-emergence treatment (in words) (harmful plants)
80%: Post-emergence action against DIGSA in % (DIGSA; Dosage 320 g/ha) | Post-emergence action against LOLRI in % (LOLRI; Dosage 80 g/ha) | Post-emergence action against VIOTR in % (VIOTR; dosage 80 g/ha)

COC(=O)[C@@H](C)Oc1nn(-c2cnccn2)c(-c2cccc(F)c2)c1Br [Example I-20]
80%: Post-emergence action against ALOMY in % (ALOMY [1]; Dosage 80 g/ha) | Post-emergence action against DIGSA in % (DIGSA; Dosage 80 g/ha) | Post-emergence action against VIOTR in % (VIOTR; dosage 80 g/ha) | Pre-emergence action against AVEFA in % (AVEFA [4])
100%: Post-emergence action against LOLRI in % (LOLRI; Dosage 320 g/ha) | Pre-emergence action against AMARE in % (AMARE) | Pre-emergence action at 1280 g/ha against ECHCG in % (ECHCG)
good herbicidal efficacy: herbicidal efficacy against harmful plants in the case of post-emergence treatment (in words) (harmful plants)
90%: Post-emergence action against ALOMY in % (ALOMY [1]; Dosage 320 g/ha) | Post-emergence action against AVEFA in % (AVEFA [2]; Dosage 80 g/ha) | Post-emergence action against AVEFA in % (AVEFA [2]; Dosage 320 g/ha) | Post-emergence action against DIGSA in % (DIGSA; Dosage 320 g/ha) | Post-emergence action against LOLRI in % (LOLRI; Dosage 80 g/ha) | Pre-emergence action against ALOMY in % (ALOMY [3])

COC(=O)C(C)Oc1nn(-c2cnccn2)c(-c2ccnc(F)c2)c1Cl (racemic) [Example I-05]
90%: Post-emergence action against AVEFA in % (AVEFA [2]; Dosage 80 g/ha) | Post-emergence action against DIGSA in % (DIGSA; Dosage 320 g/ha) | Post-emergence action against LOLRI in % (LOLRI; Dosage 320 g/ha) | Post-emergence action against VIOTR in % (VIOTR; dosage 80 g/ha) | Post-emergence action against VIOTR in % (VIOTR; dosage 320 g/ha)
100%: Post-emergence action against ALOMY in % (ALOMY [1]; Dosage 80 g/ha) | Post-emergence action against ALOMY in % (ALOMY [1]; Dosage 320 g/ha) | Post-emergence action against AVEFA in % (AVEFA [2]; Dosage 320 g/ha) | Pre-emergence action against ALOMY in % (ALOMY [3]) | Pre-emergence action against AMARE in % (AMARE) | Pre-emergence action at 1280 g/ha against ECHCG in % (ECHCG)
good herbicidal efficacy: herbicidal efficacy against harmful plants in the case of post-emergence treatment (in words) (harmful plants)
80%: Post-emergence action against DIGSA in % (DIGSA; Dosage 80 g/ha) | Pre-emergence action against AVEFA in % (AVEFA [4])

COC(=O)C(C)Oc1nn(-c2cnccn2)c(-c2ccc(F)c(F)c2)c1Br (racemic) [Example I-16]
80%: Post-emergence action against VIOTR in % (VIOTR; dosage 80 g/ha)
good herbicidal efficacy: herbicidal efficacy against harmful plants in the case of post-emergence treatment (in words) (harmful plants)
100%: Post-emergence action against ALOMY in % (ALOMY [1]; Dosage 320 g/ha) | Post-emergence action against AVEFA in % (AVEFA [2]; Dosage 320 g/ha) | Pre-emergence action against AMARE in % (AMARE) | Pre-emergence action at 1280 g/ha against ECHCG in % (ECHCG)
90%: Post-emergence action against ALOMY in % (ALOMY [1]; Dosage 80 g/ha) | Post-emergence action against AVEFA in % (AVEFA [2]; Dosage 80 g/ha) | Post-emergence action against DIGSA in % (DIGSA; Dosage 320 g/ha) | Post-emergence action against LOLRI in % (LOLRI; Dosage 320 g/ha) | Post-emergence action against VIOTR in % (VIOTR; dosage 320 g/ha) | Pre-emergence action against ALOMY in % (ALOMY [3]) | Pre-emergence action against AVEFA in % (AVEFA [4])

COC(=O)[C@@H](C)Oc1nn(-c2cnccn2)c(-c2ccnc(F)c2)c1Br [Example I-34]
good herbicidal efficacy: herbicidal efficacy against harmful plants in the case of post-emergence treatment (in words) (harmful plants)
100%: Post-emergence action against ALOMY in % (ALOMY [1]; Dosage 320 g/ha) | Pre-emergence action against ALOMY in % (ALOMY [3])
80%: Post-emergence action against ALOMY in % (ALOMY [1]; Dosage 80 g/ha) | Post-emergence action against DIGSA in % (DIGSA; Dosage 320 g/ha) | Post-emergence action against LOLRI in % (LOLRI; Dosage 320 g/ha)
90%: Post-emergence action against AVEFA in % (AVEFA [2]; Dosage 320 g/ha) | Post-emergence action against VIOTR in % (VIOTR; dosage 80 g/ha) | Post-emergence action against VIOTR in % (VIOTR; dosage 320 g/ha) | Pre-emergence action against AVEFA in % (AVEFA [4]) | Pre-emergence action against AMARE in % (AMARE) | Pre-emergence action at 1280 g/ha against ECHCG in % (ECHCG)

CCOC(=O)COc1nn(-c2cnccn2)c(-c2ccc(F)nc2)c1Cl [Example I-53]
100%: Pre-emergence action against ALOMY in % (ALOMY [3]) | Pre-emergence action against AMARE in % (AMARE) | Pre-emergence action at 1280 g/ha against ECHCG in % (ECHCG)
90%: Post-emergence action against DIGSA in % (DIGSA; Dosage 80 g/ha) | Post-emergence action against VIOTR in % (VIOTR; dosage 80 g/ha) | Pre-emergence action against AVEFA in % (AVEFA [4])
good herbicidal efficacy: herbicidal efficacy against harmful plants in the case of post-emergence treatment (in words) (harmful plants)

C[C@H](Oc1nn(-c2cnccn2)c(-c2cncc(F)c2)c1Br)C(=O)O [Example I-37]
100%: Post-emergence action against ALOMY in % (ALOMY [1]; Dosage 320 g/ha) | Pre-emergence action against ALOMY in % (ALOMY [3]) | Pre-emergence action at 1280 g/ha against ECHCG in % (ECHCG)
90%: Post-emergence action against ALOMY in % (ALOMY [1]; Dosage 80 g/ha) | Post-emergence action against AVEFA in % (AVEFA [2]; Dosage 80 g/ha) | Post-emergence action against AVEFA in % (AVEFA [2]; Dosage 320 g/ha) | Post-emergence action against DIGSA in % (DIGSA; Dosage 320 g/ha) | Post-emergence action against LOLRI in % (LOLRI; Dosage 320 g/ha) | Post-emergence action against VIOTR in % (VIOTR; dosage 320 g/ha) | Pre-emergence action against AVEFA in % (AVEFA [4]) | Pre-emergence action against AMARE in % (AMARE)
80%: Post-emergence action against VIOTR in % (VIOTR; dosage 80 g/ha)
good herbicidal efficacy: herbicidal efficacy against harmful plants in the case of post-emergence treatment (in words) (harmful plants)

COC(=O)[C@@H](C)Oc1nn(-c2cnccn2)c(-c2ccc(F)nc2)c1Cl [Example I-36]
90%: Post-emergence action against AVEFA in % (AVEFA [2]; Dosage 80 g/ha) | Post-emergence action against AVEFA in % (AVEFA [2]; Dosage 320 g/ha) | Post-emergence action against DIGSA in % (DIGSA; Dosage 320 g/ha) | Post-emergence action against LOLRI in % (LOLRI; Dosage 320 g/ha) | Post-emergence action against VIOTR in % (VIOTR; dosage 80 g/ha) | Post-emergence action against VIOTR in % (VIOTR; dosage 320 g/ha) | Pre-emergence action at 1280 g/ha against ECHCG in % (ECHCG)
100%: Post-emergence action against ALOMY in % (ALOMY [1]; Dosage 320 g/ha) | Pre-emergence action against ALOMY in % (ALOMY [3]) | Pre-emergence action against AVEFA in % (AVEFA [4]) | Pre-emergence action against AMARE in % (AMARE)
80%: Post-emergence action against DIGSA in % (DIGSA; Dosage 80 g/ha)
good herbicidal efficacy: herbicidal efficacy against harmful plants in the case of post-emergence treatment (in words) (harmful plants)
